How the values were obtained:
L1210 = assay: Compound was evaluated for inhibitory activity against L-1210 leukemic cells in vitro; Range 1.8x10E-8 to 2x10E-7 M; format: functional; settings: Mus musculus, read-out: ID50 (the source's name)
P388 = assay: Compound was evaluated for inhibitory activity against P-388 leukemic cells in vitro; Range 1.8x10E-8 to 2x10E-7 M; format: functional; settings: Mus musculus, read-out: ID50 (the source's name)

- IC50 (L1210): 200 nM
- IC50 (P388): 200 nM
SMILES: Cc1c(CNc2ccc(C(=O)NC(CCC(=O)O)C(=O)O)cc2)cnc2nc(N)nc(N)c12 (configuration not stated)

Source: ChEMBL document CHEMBL1123525, “Synthesis and biological activities of 5-deaza analogues of aminopterin and folic acid” (1986)
